# Source: PubChem BioAssay (NCI)
#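 Dose response: 5 concentrations. Exposure: 48 h. Format: 96-well plates. Endpoint: linear interpolation; highest concentration if not reached. TGI marks complete inhibition of growth.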
# Assays:
# Test in all cases: NCI-60 cell line screen, 48 h
# SK-MEL-2 melanoma = system: SK-MEL-2 melanoma
# LOX IMVI melanoma = system: LOX IMVI melanoma
# UACC-62 melanoma = system: UACC-62 melanoma
# OVCAR-5 ovarian = system: OVCAR-5 ovarian
# HL-60(TB) leukemia = system: HL-60(TB) leukemia
# UO-31 renal = system: UO-31 renal
# HCC-2998 colon = system: HCC-2998 colon
# MDA-MB-231 breast = system: MDA-MB-231 breast
SMILES,TGI (SK-MEL-2 melanoma),TGI (LOX IMVI melanoma),TGI (UACC-62 melanoma),TGI (OVCAR-5 ovarian),TGI (HL-60(TB) leukemia),TGI (UO-31 renal),TGI (HCC-2998 colon),TGI (MDA-MB-231 breast)
COc1cccc(N2C(=O)C3c4[nH]c5ccccc5c4C4c5ccccc5CCC4C3C2=O)c1 (centres undefined),> 10 µM,> 10 µM,> 10 µM,> 10 µM,> 10 µM,> 10 µM,> 10 µM,> 10 µM
CCN(CC)Cc1nc2sc3c(c2c(=O)n1-c1ccccc1)CCCC3,38.6 µM,28.7 µM,30.4 µM,63.1 µM,> 100 µM,23.3 µM,33.6 µM,30.4 µM
Cc1nc2ccc(S(=O)(=O)Nc3ccc(Cl)cc3)cc2c(=O)n1NC(=O)CNc1ccc(Cl)cc1,> 100 µM,> 100 µM,> 100 µM,> 100 µM,> 100 µM,> 100 µM,> 100 µM,> 100 µM
COc1cc2c3cc1Oc1c(O)c(OC)cc4c1[C@H](Cc1ccc(cc1)Oc1cc(ccc1O)C[C@H]3N(C)CC2)N(C)CC4,25.6 µM,17.8 µM,33.4 µM,58.6 µM,33.9 µM,44.8 µM,22.8 µM,22.8 µM
COc1ccc2nc3cc(Cl)ccc3c(NCCCCCC(=O)NC(COc3cnc4c(ccc5cccnc54)c3)COc3cnc4c(ccc5cccnc54)c3)c2c1,41.5 µM,86.4 µM,> 100 µM,> 100 µM,15.1 µM,> 100 µM,27.9 µM,44 µM
Oc1ccc(/C=C\c2nnc(/C=C\c3ccc(O)c(O)c3)s2)cc1O,40.7 µM,> 55.2 µM,14 µM,> 86.5 µM,2.94 µM,7.78 µM,23.9 µM,56.2 µM
Cc1cn(C2CC(n3cc(Cn4cc(F)c(=O)[nH]c4=O)nn3)C(CO)O2)c(=O)[nH]c1=O (centres undefined),> 100 µM,> 100 µM,> 100 µM,> 100 µM,> 100 µM,> 100 µM,> 100 µM,> 100 µM
CC1(C)OC2OC(COC(=O)C=[N+]=[N-])C3OC(C)(C)OC3C2O1 (centres undefined),> 100 µM,> 100 µM,> 100 µM,> 100 µM,> 100 µM,> 100 µM,> 100 µM,> 100 µM
Cc1ccc(N=Nc2c(C)nn(C(=O)CC(=O)Nc3ccccc3)c2C)cc1C,> 100 µM,> 100 µM,> 100 µM,> 100 µM,> 100 µM,> 100 µM,> 100 µM,> 100 µM
COc1ccc2c(c1)O[C@@H]1C(O)Oc3cc(OC)c(OC)cc3[C@]1(O)C2=O (some centres undefined),> 100 µM,> 100 µM,> 100 µM,> 100 µM,> 100 µM,,,> 100 µM
Cc1ccc(F)cc1NC(=O)O/N=C(\Cl)C(C)C,35.4 µM,4.79 µM,39.7 µM,31.7 µM,> 21.2 µM,23.2 µM,34.4 µM,32.8 µM
COC(=O)Cc1ccc2c(c1)Sc1ccc(CC(=O)OC)cc1N2C,> 100 µM,> 57.1 µM,> 100 µM,> 100 µM,> 93.3 µM,> 58.5 µM,> 100 µM,> 100 µM
